From US7101707B2, “Secondary sprouting for isolation and expansion of endothelial sprout cells and endothelial precursor cells from a mixed population and for screening substances” (Cedars-Sinai Medical Center, priority 2002, dated 2006)
Entries after “also recorded” stand apart in the source; their conditions may differ. One block for each molecule: values may come before it. Numbered stars: 1 amine (or outer) side, 2 acyl side, 3 side chain; on linkers, the order of the positions; unused ones are H or OH. Bridge positions count the residues as written; N and C are the ends. Square brackets hold non-standard residues; d marks the D form. Peptide text beside a SMILES is read from it. I, II: the chains in the order shown. Actinocin(9to1) = Cc1c2oc3c(C)ccc(C(=O)[*:1])c3nc-2c(C(=O)[*:2])c(N)c1=O; NMeV = CN[C@H](C(=O)O)C(C)C; Sar = CNCC(=O)O

Experiments:
REC [1] = assay: Angiogenic assays taken together (proliferation, secondary sprouting, migration, tube formation); format: cell-based, bovine; conditions: all assays
Experimental: Treatment of REC cultures. Duplicate REC cultures on plastic (for migration) or MATRIGEL™ biological cell culture substrate with the same number of cells per dish are treated with previously established working concentrations of signaling inhibitors and/or select growth factor combinations. Treatments begin at the time of seeding the cells and medium is changed every other day. Single growth factors are used as negative controls since their modulation of TN-C effects was minimal. Working growth factor concentrations were as follows: VEGF, 1–50 ng/mL depending on the assay; PlGF, 100 ng/mL; FGF-2, 10–100 ng/mL; IGF-I, 25–100 ng/mL; PDGF-BB, 10–100 ng/mL. When used as combinations, each growth factor was supplied at 10 ng/mL for optimum synergy. The already tested inhibitors of signaling molecules (Sigma, Calbiochem, BIOMOL) were used at the following optimized doses: protein kinase A (inhibitor: H89 [25 μM]), PKC (inhibitor: calphostin C [2.5 μM]), PKC-β (inhibitor: LY379196 [50 nM]), Ca^2+/calmodulin kinase II (inhibitor: KN-93 [0.5 μM]), CK1 (inhibitor: CKI-7 [50 μM]), MEK-ERK (inhibitor: PD98059 [10 μM]), p38 MAP kinase (inhibitor: SB202190 [10 μM]), PI3 kinase (inhibitor: wortmannin [100 nM]), CK2 (inhibitors: emodin [20–25 μM] and DRB [20–25 μM]), CK2 and other kinases (inhibitor: quercetin [50 μM]); and a negative control for kinase inhibition (SB202474 [10 μM]). […]

REC [2] = assay: Capillary-like tube formation on MATRIGEL; format: cell-based, bovine; conditions: for effect of kinase inhibitors on tube formation: basal and growth factor-stimulated (CK2 blockers), H-7 preliminary, not shown
Experimental: (§1) In vitro MATRIGEL™ biological cell culture substrate assay of capillary-like tube formation and secondary sprouting. […] Briefly, 50 μL of reconstituted basement membrane matrix from mouse EHS tumor (BD or GFR MATRIGEL™ biological cell culture substrate; Becton Dickinson Labware, Bedford, Mass.) were dispensed with frozen pipettes into each well of a previously frozen, sterile 96-well plate sitting on wet ice and allowed to solidify for 1 hr at room temperature or 37° C. Approximately 5×10^4 or 7.5×10^4 REC in a 100 μL volume were seeded into each triplicate well. Human recombinant or purified growth factors were added to a final concentration of 10 ng/mL (or as noted) in 0.5% FCS incomplete BREC medium. Capillary-like tube structures formed by REC on reconstituted basement membrane matrix were photographed at various intervals ranging from 12–72 hr; pictures were scanned, digitized and analyzed using image-processing software.

bovine REC [3] = assay: Secondary sprouting assay on reconstituted basement membrane matrix (MTS); format: cell-based; conditions: for effect of kinase inhibitors on secondary sprouting: basal and growth factor-stimulated (CK2 blockers), H-7 preliminary, not shown
Experimental: as §1
For the secondary sprouting assay, cells on reconstituted basement membrane matrix were seeded as above but incubated in 0.5% FCS incomplete BREC medium without any growth factors for 3 days, allowing for tube formation and collapse. On day 3, human recombinant or purified growth factors were added to a final concentration of 10 ng/mL (or as noted) in low-serum incomplete BREC medium and incubated for another 5–6 days. Digital photographs were obtained with a Kodak MDS 100 camera attached to a Leitz DM IL inverted microscope. Digitized images obtained with a Kodak MDS 100 video camera were stored on compact discs and quantified with NIH Image 1.62 software. The number of living cells in the sprouting colonies were determined using the MTS cell proliferation assay.
A good correlation was observed between the spherical volume and the number of live cells in secondary sprouting colonies (not shown). Since the latter is an easy parameter to test by using the MTS assay, it was adopted as a faster method for studying the effect of various agents on secondary sprouting.

bovine REC [4] = assay: REC survival assay (MTS, low serum); format: cell-based; conditions: for effect of growth factors on REC survival: growth factors 10 ng/mL each
Experimental: (§2) REC proliferation and survival assays. 96-well plates were coated with various amounts of TN-C or vehicle. 5×10^3 cells were added to each triplicate well in low-serum REC medium with various amounts of growth factors (0.5% FCS incomplete BREC medium containing 10 ng/ml of human IGF-I, FGF-2, VEGF, PlGF and PDGF-BB [R&D Systems Inc., Minneapolis, Minn.]). Cell numbers were determined on days 4–7 using the MTS cell proliferation assay (Promega Corp.) according to manufacturer's instructions. Survival was measured in the same way using high glucose (30 mM) or chemical hypoxia (2 mM sodium azide) or serum-free medium to induce cell death. Cell numbers were determined on days 4–7 using MTS assay (Promega).

bovine REC [5] = assay: REC proliferation assay (MTS); format: cell-based; conditions: for effect of kinase inhibitors on proliferation: basal and growth factor-stimulated (CK2 blockers), H-7 preliminary, not shown
Experimental: as §2

bovine REC [6] = assay: Migration (wound healing) assay; format: cell-based; conditions: for effect of kinase inhibitors on migration: basal and growth factor-stimulated (CK2 blockers), H-7 preliminary, not shown; for effect of growth factors on REC migration: growth factors 10 ng/mL each
Experimental: Migration assay. REC migration rates were examined in a wound healing assay, where cells migrate over time into the scrape wound in a monolayer. Briefly, cells were seeded in 24-well plates and allowed to reach confluence in growth medium. Prior to growth factor treatment, cells were serum-starved overnight in incomplete BREC medium with 0.5% FCS. All monolayers within an experiment were wounded with a single sterile wood stick of constant diameter, to ensure uniformity in the wound areas among different treatments. Wounded monolayers were then rinsed with low-serum medium to remove detached cells and treated with various combinations of human growth factors at 10 ng/mL each. On day 7, cells were rinsed 3× with PBS and fixed with methanol for 15 min, rehydrated with dH2O and stained with Meyer's hematoxylin for 5 min, followed by destaining with dH2O. All wells were photographed with a 4× or 10× objective using a Kodak MDS 100 digital camera attached to a Leitz DM IL inverted microscope. The original wound area was measured at 0 hr and used as a baseline for comparison to the treated wells at the conclusion of the experiment. The number of cells migrated into the wound was determined. Migrating cell counting was automated using the AAB (Advanced American Biotechnology, Fullerton, Calif.) software. Data were calculated and statistically analyzed (Spirin K S et al., Basement membrane and growth factor gene expression in normal and diabetic human retinas, Curr. Eye Res. 18:490–499 [1999]) relative to control cultures that received the same concentrations of bovine serum albumin instead of growth factors and/or inhibitor, compared to vehicle instead of inhibitor after wounding. Inhibitors were added 30 min before growth factors.

[7] = system: retinal neovascularization; assay: Oxygen-induced retinopathy in newborn mice; format: in vivo, mouse
human REC = assay: Gene array analysis of growth factor action on normal and DR REC; format: cell-based; conditions: 10 ng/mL, 7 days, 0.5% serum
Experimental: Normal REC and DR REC gene expression patterns were compared by gene array analysis. Normal, diabetic and DR autopsy human eyes are obtained from National Disease Research Interchange (NDRI), within 24 hours after death. These eyes are used to isolate REC for culture as described hereinabove. Cultures can be used up to the fourth passage, and viable cultures can be cryogenically stored. Cultures of normal, diabetic and DR REC are established from autopsy human eyes and routinely checked for purity using von Willebrand factor immunostaining as described hereinabove. Cells are cultured in 50% F-12, 50% low-glucose DMEM with antibiotics/antimycotics (GIBCO/BRL), insulin-transferrin-selenite, ECGS (Sigma Chemical Co.), and 20% FCS. Statistical analysis of results is done with GraphPad Prism software (GraphPad Software).
In experiments, normal, diabetic, and DR REC were grown for seven days with or without 10 ng/ml VEGF, or 10 ng/mL IGF-I, or 10 ng/mL each VEGF and IGF-I, in medium with 0.5% serum. Long-term rather than short-term treatment was chosen because diabetes develops over a considerable time period. RNA isolated from REC was reverse-transcribed using Smart™ cDNA synthesis method (Clontech), to produce full-length cDNA. Two normal cases or two DR cases were pooled together. This cDNA was PCR-amplified with a short number of cycles and used as a probe for Clontech Atlas Human 1.2 1,200-gene arrays, according to the manufacturer's instructions. This technique had previously been refined and verified by Northern analysis and fully correlated gene array data with protein expression. (Spirin K S et al., Analysis of gene expression in human bullous keratopathy corneas containing limiting amounts of RNA, Invest. Ophthalmol. Vis. Sci. 40:3108–3115 [1999]). Samples were normalized to several housekeeping genes and the analysis was done with available AtlasImage 2.0 software (Clontech). Signal ratio >2 between samples was considered significant as per manufacturer's recommendation.

Molecule: Cc1c2oc3c(C)ccc(C(=O)N[C@@H]4C(=O)N[C@H](C(C)C)C(=O)N5CCC[C@H]5C(=O)N(C)CC(=O)N(C)[C@@H](C(C)C)C(=O)O[C@@H]4C)c3nc-2c(C(=O)N[C@@H]2C(=O)N[C@H](C(C)C)C(=O)N3CCC[C@H]3C(=O)N(C)CC(=O)N(C)[C@@H](C(C)C)C(=O)O[C@@H]2C)c(N)c1=O [Actinomycin D] (I: T[dV]P[Sar][NMeV] / II: T[dV]P[Sar][NMeV]; ester I:1-I:C, II:1-II:C; linker I:N-II:N via Actinocin(9to1))
effect of inhibitors in angiogenic assays (REC [1]): only minor changes

Molecule: OC[C@H]1O[C@@H](n2cnc3cc(Cl)c(Cl)cc32)[C@H](O)[C@@H]1O [DRB, 5,6-dichloro-1-β-D-ribofuranosylbenzimidazole]
effect of kinase inhibitors on tube formation (REC [2]): potently inhibited | effect of kinase inhibitors on secondary sprouting (bovine REC [3]): potently inhibited | concentration from which live cell number in secondary sprouting is significantly decreased (bovine REC [3]; bovine REC on MATRIGEL, 0.5% serum, day 9, MTS): ≥ 25 µM | number of live cells, survival (bovine REC [4]; bovine REC, 0.5% serum, various concentrations, day 6, MTS): significantly lowers cell number | effect of kinase inhibitors on proliferation (bovine REC [5]): potently inhibited | number of live cells, proliferation (bovine REC [5]; bovine REC, 10% serum, various concentrations, day 6, MTS): significantly lowers cell number | effect of kinase inhibitors on migration (bovine REC [6]): potently inhibited | effect on growth factor-mediated cell migration (bovine REC [6]; four GFs 10 ng/ml each, 7 days, 0.5% serum, emodin 10 μM, DRB 15 μM): significant inhibitory effect | diminution of retinal neovascularization (preretinal nuclei count) ([7]; two intraperitoneal injections daily, day 11 to 17 after birth, emodin 20–30 μg/g, vs untreated or vehicle): about 60%

effect of kinase inhibitors on tube formation (REC [2]): stabilized REC tubes | effect of kinase inhibitors on secondary sprouting (bovine REC [3]): inhibited | effect of kinase inhibitors on migration (bovine REC [6]): inhibited
Molecule: CC1CNCCN1S(=O)(=O)c1cccc2cnccc12 (centres unmarked) [H-7]
effect of kinase inhibitors on proliferation (bovine REC [5]): inhibited

effect of kinase inhibitors on tube formation (REC [2]): potently inhibited | effect of kinase inhibitors on secondary sprouting (bovine REC [3]): potently inhibited | effect of kinase inhibitors on migration (bovine REC [6]): potently inhibited
Molecule: O=c1c(O)c(-c2ccc(O)c(O)c2)oc2cc(O)cc(O)c12 [quercetin]
effect of kinase inhibitors on proliferation (bovine REC [5]): potently inhibited | effect on retinal neovascularization ([7]; intramuscular injections, data not shown): substantial effect

Molecule: FGF-2: fibroblast growth factor (FGF)-2, angiogenic growth factor
effect of growth factors on tube formation (REC [2]; growth factors 10 ng/mL each): little or no effect | morphology of sprouting colonies after growth factor treatment (bovine REC [3]; 10 ng/mL): longer and sparser sprouts | effect of growth factors on secondary sprouting (live cell number) (bovine REC [3]; 10 ng/mL, 0.5% FCS medium): potently stimulated; also recorded: pro-angiogenic; also recorded: dramatic increase; also recorded: greatly enhanced | stimulation of secondary sprouting (fold, on average) (bovine REC [3]; growth factors, live cells by MTS): four-fold | effect of growth factors on REC migration (bovine REC [6]): little or no effect

Molecule: IGF-I: insulin-like growth factor (IGF)-I
effect of growth factors on REC survival (bovine REC [4]): the opposite | effect of growth factors on REC migration (bovine REC [6]): the opposite | expression of pro-apoptotic genes (human REC): decrease

Molecule: VEGF
effect of growth factors on REC survival (bovine REC [4]): little effect | effect of growth factors on REC migration (bovine REC [6]): significantly enhanced | expression of pro-apoptotic genes (human REC): did not display an increase | expression of proliferation-related genes (human REC): upregulated | expression of various phosphatases (human REC): downregulated
